How the values were obtained:
Assay type in all cases: in vivo, Balb/c female mice
[1] = Body weight in asthma-induced mice; settings: homoegonol study
Protocol: (§1) To prepare bronchial asthma-induced experimental animals, six-week-old Balb/c female mice of mean weight about 20 g were used. After one week of adaptation, individuals which had no observed abnormality on a basic physical examination were targeted. 200 μL of phosphate buffered saline (PBS)(pH 7.4) in which 2 mg of aluminum hydroxide (A8222, Sigma, St. Louis, Mo.) and 20 μg of ovalbumin (A5503, Sigma, St. Louis, Mo.) were suspended was injected into the peritoneal cavity at two-week intervals to result in sensitization. On days 28 to 30 after the first intraperitoneal administration of ovalbumin, inhalation challenge was performed for 30 min with 1% ovalbumin using an ultrasonic atomizer. 24 hours after the last antigen administration, airway hyperresponsiveness was measured. After 24 hours, a lethal dose of pentobarbital (Entobar®, Hanlim Pharm Co., Ltd.) was administered, body weight measurement and bronchotomy were performed, and bronchoalveolar lavage was performed with a total 1.2 mL of physiological saline, and then, samples were collected. […] Eight white mice were used for each group. Experimental groups for homoegonol were a group (hE7.5) in which animals were orally administered with 7.5 mg/kg homoegonol 1 hour prior to ovalbumin inhalation, a group (hE15) in which animals were orally administered with 15 mg/kg homoegonol 1 hour prior to ovalbumin inhalation, and a group (hE30) in which animals were orally administered with 30 mg/kg homoegonol 1 hour prior to ovalbumin inhalation, and five white mice were used for each group.
To determine an effect of styraxlignolide A on reduction in body weight in asthma-induced mice, body weight of each mouse prepared in Example 2 was measured. For statistical analyses for all measurements, means and standard errors (mean±S.E.) according to a number of variables were calculated, and comparison between each group was analyzed by performing a Mann-whitney U test using SPSS 10.0. Statically significance was accepted at p<0.05.
To determine an effect of homoegonol on reduction in body weight in asthma-induced mice, body weight of each mouse prepared in Example 2 was measured. For statistical analyses for all measurements, means and standard errors (mean±S.E.) according to a number of variables were calculated, and comparison between each group was analyzed by performing a Mann-whitney U test using SPSS 10.0. Statically significance was accepted at p<0.05.

[2] = test system: inflammatory cells in bronchoalveolar lavage fluid; test: Inflammatory cell counts in bronchoalveolar lavage fluid (Diff-Quick staining); settings: asthma-induced mice, homoegonol study, bronchoalveolar lavage fluid
Protocol: as §1
Bronchoalveolar lavage fluid was collected from individuals of each experimental group in <Example 2> and right after the collection, fluid was stained with trypan blue. The number of total cells except dead cells was calculated using a hemocytometer. Then, Diff-Quick staining (Sysmex, Swizerland) was performed after smear preparation with Cytospin II, and eosinophils and other inflammatory cells were differentially counted.
To examine the effect of homoegonol on asthma, variation in the numbers of asthma-related inflammatory cells was measured according to the method in <Experimental Example 3>.

ovalbumin-specific IgE = test: IgE levels in serum and bronchoalveolar lavage fluid (ELISA); settings: asthma-induced mice, homoegonol study; for Total serum IgE level: Table 2
Protocol: as §1
To measure serum and bronchoalveolar lavage fluid ovalbumin-specific IgE levels caused by administration of styraxlignolide A, an immunoenzyme technique was used. 20 μg/mL of ovalbumin was dissolved in a 0.1 M NAHCO3 buffer (pH 8.3), and was placed into a 96-well flat bottom ELISA plate to be coated at 4° C. overnight. Non-specific binding was blocked with PBS containing 1% bovine serum albumin, and a serum sample was diluted 1:400 and was allowed to react at room temperature for 2 hours. Then, the plate was washed well, and anti-mouse IgE monoclonal antibody was diluted 1:300 and was allowed to react for 2 hours. Then, HRP-conjugated goat anti-rat IgG polyclonal antibody which was coupled to peroxidase was diluted 1:4000 and was allowed to react at room temperature for 1 hour, and then, was washed. For color development, 3,3′,5,5′-tetramethylbezidine substrate was allowed to react, and the spectroscopic absorbance was measured at 650 nm.
To measure IgE levels which are correlated with severity of asthma to examine the effect of homoegonol on asthma, IgE levels in serum and bronchoalveolar lavage fluid were measured according to the method in <Experimental Example 4>.

[3] = test system: inflammatory cells in the airway mucosa; test: Inflammatory cell infiltration in airway mucosa, inflammatory index (H&E staining); settings: asthma-induced mice, homoegonol study, scale 0-4
Protocol: as §1
Lungs removed from each individual were subjected to conventional formalin fixation and paraffin embedding, and permanent section slides of 4 μm thickness were prepared, and hematoxylin and eosin (H&E) staining was performed. After H&E staining, inflammatory index was measured from random five regions per section slide of each individual to calculate the mean value. Assessments were as follows: inflammatory index 0 is for the case that inflammatory cells are not observed around the bronchus; inflammatory index 1 is for the case that inflammatory cells are intermittently observed; inflammatory index 2 is for the case that thin inflammatory cell layers of one to two or three layers are observed around most of the bronchus; inflammatory index 3 is for the case that inflammatory cell layers of two or three to five or less layers are observed around most of the bronchus; and inflammatory index 4 is for the case that thick inflammatory cell layers of five or more layers are observed around most of the bronchus.
To examine the effect of homoegonol on asthma, lungs of which bronchoalveolar lavage was not performed were removed, and histopathological assessment was performed according to the method in <Experimental Example 7-1>. Since infiltration of inflammatory cells which are comprised of eosinophils, neutrophils, and macrophages are observed in an antigen-aroused bronchus, the present inventors tried to detect inflammatory cell infiltration.

[4] = test system: fibrosis in subsegmental bronchi; test: Fibrosis in subsegmental bronchi (Masson's trichrome staining); settings: asthma-induced mice, homoegonol study; 30 mg/kg PO
Protocol: as §1

TGF-β1 = TGF-β1 in bronchoalveolar lavage fluid; settings: asthma-induced mice, homoegonol study
Protocol: as §1
(§2) To examine the effect of homoegonol on airway remodeling, generation of TGF-β1 and IL-17 in bronchoalveolar lavage fluid was measured.

IL-17 = IL-17 in bronchoalveolar lavage fluid; settings: asthma-induced mice, homoegonol study
Protocol: as §1, §2

**Q.** With `COc1ccc(-c2cc3cc(CCCO)cc(OC)c3o2)cc1OC` [homoegonol] as the molecule, how does the body weight ([1]; 7.5 mg/kg PO 1 hour prior to ovalbumin inhalation) read?
**A.** Its body weight is 22.10 ± 0.13 g.

**Q.** And the body weight ([1]; 15 mg/kg PO 1 hour prior to ovalbumin inhalation)?
**A.** The body weight was 21.23 ± 0.43 g.

**Q.** And the body weight ([1]; 30 mg/kg PO 1 hour prior to ovalbumin inhalation)?
**A.** Its body weight is 21.98 ± 0.47 g.

**Q.** And the “Number of cells, Other inflammatory cells” value ([2]; 7.5 mg/kg PO)?
**A.** Its value is 33.40 ± 2.3467 ×10^3 cells/mouse.

**Q.** What about the “Number of cells, Eosinophils” value ([2]; 7.5 mg/kg PO, 7.5 mg/kg) of the same molecule?
**A.** Its value is 12.80±2.50 ×10^3 cells/mouse.

**Q.** What about the “Number of cells, Total inflammatory cells” value ([2]; 7.5 mg/kg PO, 7.5 mg/kg) of the same molecule?
**A.** Its value is 42.80±7.2060 ×10^3 cells/mouse.

**Q.** What about the “Number of cells, Other inflammatory cells” value ([2]; 15 mg/kg PO) of the same molecule?
**A.** Its value is 30.00 ± 2.8267 ×10^3 cells/mouse.

**Q.** And the “Number of cells, Eosinophils” value ([2]; 15 mg/kg PO, 15 mg/kg)?
**A.** Its value is 6.32±0.86 ×10^3 cells/mouse.

**Q.** And the “Number of cells, Total inflammatory cells” value ([2]; 15 mg/kg PO, 15 mg/kg)?
**A.** The value was 39.72±4.4400 ×10^3 cells/mouse.

**Q.** What about the “Number of cells, Other inflammatory cells” value ([2]; 30 mg/kg PO) of the same molecule?
**A.** The value was 28.4 ± 3.1739 ×10^3 cells/mouse.

**Q.** And the “Number of cells, Eosinophils” value ([2]; 30 mg/kg PO, 30 mg/kg)?
**A.** Its value is 5.48±2.02 ×10^3 cells/mouse.

**Q.** What about the “Number of cells, Total inflammatory cells” value ([2]; 30 mg/kg PO, 30 mg/kg) of the same molecule?
**A.** The value was 33.88±8.1589 ×10^3 cells/mouse.

**Q.** And the “Total IgE level in bronchoalveolar lavage fluid” value (shortened to “Total IgE level”) (ovalbumin-specific IgE; 7.5 mg/kg PO, 7.5 mg/kg)?
**A.** The value was 65.5957 ± 11.6656 ng/mL.

**Q.** What about the “serum IgE levels” value (ovalbumin-specific IgE; 7.5 mg/kg PO) of the same molecule?
**A.** The value was 19.22 ± 4.9287 µg/mL.

**Q.** What about the “Total serum IgE level” value (ovalbumin-specific IgE; 7.5 mg/kg PO) of the same molecule?
**A.** The value was 10.34 ± 6.0548 µg/mL.

**Q.** And the “Total IgE level” value (ovalbumin-specific IgE; 15 mg/kg PO, 15 mg/kg)?
**A.** Its value is 48.4894 ± 4.1926 ng/mL.

**Q.** And the “serum IgE levels” value (ovalbumin-specific IgE; 15 mg/kg PO)?
**A.** Its value is 10.74 ± 3.4612 µg/mL.

**Q.** And the “Total serum IgE level” value (ovalbumin-specific IgE; 15 mg/kg PO)?
**A.** The value was 9.94 ± 5.0656 µg/mL.

**Q.** And the “Total IgE level” value (ovalbumin-specific IgE; 30 mg/kg PO, 30 mg/kg)?
**A.** The value was 23.8085 ± 3.3515 ng/mL.

**Q.** What about the “serum IgE levels” value (ovalbumin-specific IgE; 30 mg/kg PO) of the same molecule?
**A.** The value was 8.14 ± 5.9682 µg/mL.

**Q.** What about the “Total serum IgE level” value (ovalbumin-specific IgE; 30 mg/kg PO) of the same molecule?
**A.** The value was 8.62 ± 2.4844 µg/mL.

**Q.** And the “Inflammatory index, peribronchiolar” value ([3]; 7.5 mg/kg PO, 7.5 mg/kg)?
**A.** The value was 1.67±0.1491.

**Q.** And the “Inflammatory index, perivascular” value ([3]; 7.5 mg/kg PO, 7.5 mg/kg)?
**A.** Its value is 1.89±0.1791.

**Q.** And the “Inflammatory index, peribronchiolar” value ([3]; 15 mg/kg PO, 15 mg/kg)?
**A.** Its value is 1.40±0.1549.

**Q.** What about the “Inflammatory index, perivascular” value ([3]; 15 mg/kg PO, 15 mg/kg) of the same molecule?
**A.** The value was 1.70±0.1449.

**Q.** What about the “Inflammatory index, peribronchiolar” value ([3]; 30 mg/kg PO, 30 mg/kg) of the same molecule?
**A.** Its value is 1.00±0.2449.

**Q.** What about the “Inflammatory index, perivascular” value ([3]; 30 mg/kg PO, 30 mg/kg) of the same molecule?
**A.** Its value is 1.30±0.2025.

**Q.** What about the “area of a fibrosis stained region per 100 μm of a basement membrane perimeter” value [4] of the same molecule?
**A.** The value was 320.99 ± 46.2236 μm^2/100 μm of basement membrane.

**Q.** What about the “TGF-β1 concentrations in bronchoalveolar lavage fluid” value (“TGF-β1 concentrations” for short) (TGF-β1; 7.5 mg/kg PO) of the same molecule?
**A.** The value was 216.1875 ± 13.5904 pg/mL.

**Q.** What about the “TGF-β1 concentrations” value (TGF-β1; 15 mg/kg PO) of the same molecule?
**A.** The value was 190.4375 ± 13.0702 pg/mL.

**Q.** And the “TGF-β1 concentrations” value (TGF-β1; 30 mg/kg PO)?
**A.** The value was 186.8125 ± 6.4551 pg/mL.

**Q.** What about the “IL-17 concentrations in bronchoalveolar lavage fluid” value (from here on “IL-17 concentrations”) (IL-17; 7.5 mg/kg PO) of the same molecule?
**A.** Its value is 70.3409 ± 14.2912 pg/mL.

**Q.** And the “IL-17 concentrations” value (IL-17; 15 mg/kg PO)?
**A.** Its value is 43.5682 ± 2.9102 pg/mL.

**Q.** And the “IL-17 concentrations” value (IL-17; 30 mg/kg PO)?
**A.** Its value is 27.3863 ± 5.7881 pg/mL.
